The values below come from patent publication US9421276B2, “Clickable polyoxetane carrier for drug delivery” (VIRGINIA COMMONWEALTH UNIVERSITY, priority 2012, dated 2016).

The conditions of data set [1]: physiological pH, background statement; cited from earlier work.
In data set [2] the test system is Human glioma U1242/luc-GFP cells. The data set is described as follows: Cell toxicity assay (luciferase assay). It counts as cell-based. The following applies: 48 h, carriers at concentrations up to 33 μM.
Experimental: Cell toxicity assays. Human glioma U1242/luc-GFP cells stably expressing the reporter luciferase were exposed to various CPT equivalent concentrations of polymer-CPT conjugates or polymer control samples (n=4) in a 96-well microtiter plate for 48 h followed by luciferase assay to assess survival of cells.

Regarding `CC[C@@]1(O)C(=O)OCc2c1cc1n(c2=O)Cc2cc3ccccc3nc2-1` [CPT, 20(S)-Camptothecin], in data set [1], the “stability of lactone form” value is given as “rapidly transforms into the carboxylate form”. Further, the cytotoxicity result in data set [2] was “dose-dependent toxic”.
